The values below come from PubChem BioAssay AID1259408 (Genetic Toxicology Data Bank (GENE-TOX), 2018).

This data set has as its system GENE-TOX genotoxicity assays, various organisms and cells. Nature of the data set: GENE-TOX mutagenicity studies. As to conditions: for call: Assay Type: In vivo carcinogenicity studies. From the text: GENE-TOX provides genetic toxicology (mutagenicity) test data from expert peer review of open scientific literature for more than 3,000 chemicals from the United States Environmental Protection Agency (EPA). GENE-TOX was established to select assay systems for evaluation, review data in the scientific literature, and recommend proper testing protocols and evaluation procedures for these systems.
GENE-TOX covers the years 1991 - 1998. It is no longer updated.
This is an archive assay for GENE-TOX mutagenicity studies.

The mark [1] stands for this setting: Species/Cell Type: Nonhuman, Assay Code: CCG+, Evaluation Type: Evaluation A (Pre-1980).
[2] abbreviates: Species/Cell Type: Nonhuman, Assay Type: Sister-chromatid exchange (SCE) in vitro, Assay Code: SC2T, Evaluation Type: Evaluation B (Post-1980).
The mark [3] stands for this setting: Species/Cell Type: Salmonella typhimurium (one or more of the five standard strains: TA98, TA100, TA1535, TA1537, and TA1538), Assay Type: Histidine reverse gene mutation, Ames assay, Assay Code: SAL-, Evaluation Type: Evaluation A (Pre-1980).
Where [4] appears, read: Species/Cell Type: Salmonella typhimurium (one or more of the five standard strains: TA98, TA100, TA1535, TA1537, and TA1538), Assay Type: Histidine reverse gene mutation, Ames assay, Assay Code: SAL+, Evaluation Type: Evaluation A (Pre-1980).
Where [5] appears, read: Species/Cell Type: Drosophila melanogaster, Assay Type: Sex-linked recessive lethal gene mutation, Assay Code: SRLT, Evaluation Type: Evaluation A (Pre-1980).

Molecules are shown by their SMILES. Active and inactive are the calls of the source. The rule behind the calls is not given here.

`CC(COc1ccccc1)N(CCCl)Cc1ccccc1` (stereo not given): the call under setting [1] is “active; positive”.

`Cc1ncc(COP(=O)(O)O)c(C=O)c1O`: the mutagenic call (Species/Cell Type: Human lymphocytes, Assay Type: Sister-chromatid exchange (SCE) in vitro, Assay Code: SCLT, Evaluation Type: Evaluation B (Post-1980)) was “no conclusion” and the mutagenic call (Species/Cell Type: Human, Assay Type: Sister-chromatid exchange (SCE) in vitro, Assay Code: SC1T, Evaluation Type: Evaluation B (Post-1980)) is listed as “no conclusion”.

As for `Oc1cccc(O)c1`, the mutagenic call by setting is: (Species/Cell Type: Allium cepa, Assay Type: Chromosome aberrations, Assay Code: ALC+, Evaluation Type: Evaluation A (Pre-1980)) “active; positive”; (Species/Cell Type: Human lymphocytes, Assay Type: Sister-chromatid exchange (SCE) in vitro, Assay Code: SCL-, Evaluation Type: Evaluation B (Post-1980)) “inactive; negative”; (Species/Cell Type: Human, Assay Type: Sister-chromatid exchange (SCE) in vitro, Assay Code: SC1-, Evaluation Type: Evaluation B (Post-1980)) “inactive; negative”; (Species/Cell Type: Mammalian polychromatic erythrocytes, Assay Type: Micronucleus test, chromosome aberrations, Assay Code: MNTT, Evaluation Type: Evaluation A (Pre-1980)) “no conclusion”; (Species/Cell Type: Neurospora crassa, Assay Type: Aneuploidy, chromosome aberrations, Assay Code: NEN-, Evaluation Type: Evaluation A (Pre-1980)) “inactive; negative”; under setting [2], “no conclusion”. The mutagenic call (Species/Cell Type: Nonhuman, Assay Type: Sister-chromatid exchange (SCE) in vivo, Assay Code: SC3-, Evaluation Type: Evaluation B (Post-1980)) is “inactive; negative” and the mutagenic call under setting [3] is “inactive; negative”.

As for `C1=CC2OC2c2cc3ccc4cccc5ccc(c21)c3c45` (stereo not given), the mutagenic call by setting is: (Species/Cell Type: Chinese hamster lung (V79) cells, Assay Type: Forward gene mutation at the HPRT or ouabain locus, Assay Code: V79-, Evaluation Type: Evaluation A (Pre-1980)) “inactive; negative”; (Species/Cell Type: Nonhuman, Assay Type: Sister-chromatid exchange (SCE) in vitro, Assay Code: SC2+D, Dose Response: With dose response, Evaluation Type: Evaluation B (Post-1980)) “active; positive”; under setting [4], “active; positive”. Under “Species/Cell Type: Nonhuman, Assay Code: CCG+L, Evaluation Type: Evaluation A (Pre-1980)”, the call is “active; positive”.

Take `c1ccc2c(c1)Cc1ccccc1-2`: the mutagenic call is, setting by setting: (Species/Cell Type: Nonhuman, Assay Type: Sister-chromatid exchange (SCE) in vivo, Assay Code: SC3T, Evaluation Type: Evaluation B (Post-1980)) “no conclusion”; under setting [3], “inactive; negative”.

In the case of `C/[N+]([O-])=N/CO[C@@H]1O[C@H](CO)[C@@H](O)[C@H](O)[C@H]1O`, the mutagenic call runs as follows: under setting [5], “no conclusion”; under setting [3], “inactive; negative”; (Species/Cell Type: Salmonella typhimurium, Assay Type: Forward and reverse gene mutation, host-mediated assay, Assay Code: HMA+, Evaluation Type: Evaluation A (Pre-1980)) “active; positive”. In addition, the call under setting [1] is “active; positive”.

As to `CCOP(=O)(NC(C)C)Oc1ccc(SC)c(C)c1` (stereo not given), under “Species/Cell Type: Nonhuman, Assay Type: Sister-chromatid exchange (SCE) in vitro, Assay Code: SC2-, Evaluation Type: Evaluation B (Post-1980)”, the mutagenic call was “inactive; negative”.

For `[Cl][Tb]([Cl])[Cl]`, the mutagenic call (Species/Cell Type: Bacillus subtilis (H17 vs M45), Assay Type: Rec-assay, spot test, DNA effects (bacterial DNA repair), Assay Code: REW-, Evaluation Type: Evaluation A (Pre-1980)) was “inactive; negative”.

As to `O=C1NC(c2ccc([N+](=O)[O-])s2)Nc2ccccc21` (stereo not given), the mutagenic call under setting [4] is “active; positive”.

Regarding `c1ccc2c(c1)ccc1nc3c(ccc4ccccc43)nc12`, the mutagenic call under setting [5] is listed as “no conclusion”.

In the case of `NNCCc1ccccc1`, the mutagenic call reads like this: (Species/Cell Type: Human, Sex: Male, Assay Type: Sperm morphology, Assay Code: SPHT, Evaluation Type: Evaluation A (Pre-1980)) “no conclusion”; (Species/Cell Type: Nonhuman, Assay Type: Sister-chromatid exchange (SCE) in vivo, Assay Code: SC3+, Evaluation Type: Evaluation B (Post-1980)) “active; positive”.

Take `Cc1ccc(S(N)(=O)=O)cc1`: the mutagenic call reads like this: under setting [5], “no conclusion”; (Species/Cell Type: Mammalian polychromatic erythrocytes, Assay Type: Micronucleus test, chromosome aberrations, Assay Code: MNTT, Evaluation Type: Evaluation B (Post-1980)) “no conclusion”.

For `O=NN(CCCl)C(=O)NCCCO`, the mutagenic call runs as follows: (Species/Cell Type: Drosophila melanogaster, Assay Type: Sex-linked recessive lethal gene mutation, Assay Code: SRL+, Evaluation Type: Evaluation A (Pre-1980)) “active; positive”; (Species/Cell Type: Saccharomyces cerevisiae, Assay Type: Mitotic recombination or gene conversion, Assay Code: YEC+, Evaluation Type: Evaluation A (Pre-1980)) “active; positive”.

In the case of `COC/C=C(C)/C=C/C=C(C)/C=C/C1=C(C)CCCC1(C)C`, the mutagenic call (Species/Cell Type: Human, Assay Type: Sister-chromatid exchange (SCE) in vitro, Assay Code: SC1+D, Dose Response: With dose response, Evaluation Type: Evaluation B (Post-1980)) was “active; positive”.

For the molecule `CC(C)N(C(=O)SC/C(Cl)=C/Cl)C(C)C`, the mutagenic call by setting is: (Species/Cell Type: Nonhuman, Assay Type: Sister-chromatid exchange (SCE) in vitro, Assay Code: SC2+D*, Activation: With metabolic activation, Dose Response: With dose response, Evaluation Type: Evaluation B (Post-1980)) “active; positive”; (Species/Cell Type: Salmonella typhimurium (one or more of the five standard strains: TA98, TA100, TA1535, TA1537, and TA1538), Assay Type: Histidine reverse gene mutation, Ames assay, Assay Code: SAL+*, Activation: With metabolic activation, Evaluation Type: Evaluation A (Pre-1980)) “active; positive”.

Regarding `c1csc(-c2ccc(-c3cccs3)s2)c1`, the mutagenic call under setting [2] is recorded as “no conclusion”.

With `CS(=O)(=O)OC[C@H](O)[C@@H](O)COS(C)(=O)=O`, the mutagenic call is “active; positive” (Species/Cell Type: Allium cepa, Assay Type: Chromosome aberrations, Assay Code: ALC+D, Dose Response: With dose response, Evaluation Type: Evaluation A (Pre-1980)); “active; positive” (Species/Cell Type: Arabidopsis species, Assay Type: Gene mutation, Assay Code: ARM+, Evaluation Type: Evaluation A (Pre-1980)); “active; positive” (Species/Cell Type: Hordeum vulgare (barley), Assay Type: Chromosome aberrations, Assay Code: HOC+D, Dose Response: With dose response, Evaluation Type: Evaluation A (Pre-1980)); “active; positive” (Species/Cell Type: Vicia faba, Assay Type: Chromosome aberrations, Assay Code: VIC+, Evaluation Type: Evaluation A (Pre-1980)).

As to `Cn1c(=O)c2c([nH]c(=O)n2C)n(C)c1=O`, the mutagenic call (Species/Cell Type: Allium cepa, Assay Type: Chromosome aberrations, Assay Code: ALC-, Evaluation Type: Evaluation A (Pre-1980)) is “inactive; negative”.
